Test results from the NIST ThermoML archive (doi:10.1016/j.jct.2004.03.005).
Numbers after ± are expanded uncertainties.

Legend:
[1] = for Triple point temperature: Crystal 2, DTA; for vapor or sublimation pressure: Crystal, Calculated from knudsen effusion weight loss
[2] = Molar enthalpy of transition or fusion; conditions: Crystal 2; DSC
[3] = molar heat capacity at constant pressure; conditions: 101.33 kPa, Small sample (50 mg) DSC

Structure (SMILES)	Triple point temperature [1]	Molar enthalpy of transition or fusion [2]	molar heat capacity at constant pressure ([3]; 268.15 K, Crystal 2)	molar heat capacity at constant pressure ([3]; 270.15 K, Crystal 2)	molar heat capacity at constant pressure ([3]; 275.15 K, Crystal 2)	molar heat capacity at constant pressure ([3]; 280.15 K, Crystal 2)	molar heat capacity at constant pressure ([3]; 285.15 K, Crystal 2)	molar heat capacity at constant pressure ([3]; 290.15 K, Crystal 2)	molar heat capacity at constant pressure ([3]; 295.15 K, Crystal 2)	molar heat capacity at constant pressure ([3]; 298.15 K, Crystal 2)	molar heat capacity at constant pressure ([3]; 300.15 K, Crystal 2)	molar heat capacity at constant pressure ([3]; 305.15 K, Crystal 2)	molar heat capacity at constant pressure ([3]; 310.15 K, Crystal 2)	molar heat capacity at constant pressure ([3]; 315.15 K, Crystal 2)	molar heat capacity at constant pressure ([3]; 320.15 K, Crystal 2)	molar heat capacity at constant pressure ([3]; 325.15 K, Crystal 2)	molar heat capacity at constant pressure ([3]; 330.15 K, Crystal 2)	molar heat capacity at constant pressure ([3]; 335.15 K, Crystal 2)	molar heat capacity at constant pressure ([3]; 340.15 K, Crystal 2)	molar heat capacity at constant pressure ([3]; 345.15 K, Crystal 2)	other results
CC(C)c1nc2ccccc2[nH]1 [1H-benzimidazole, 2-(1-methylethyl)-]	410.4 ± 0.4 K	0.239 ± 0.0478 kcal/mol	197 ± 3.9 J/K/mol	199 ± 4 J/K/mol	202.8 ± 4.1 J/K/mol	206.9 ± 4.1 J/K/mol	210.8 ± 4.2 J/K/mol	214.4 ± 4.3 J/K/mol	218.7 ± 4.4 J/K/mol	220.6 ± 4.4 J/K/mol	221.7 ± 4.4 J/K/mol	224.5 ± 4.5 J/K/mol	228 ± 4.6 J/K/mol	230.9 ± 4.6 J/K/mol	234.6 ± 4.7 J/K/mol	238 ± 4.8 J/K/mol	240.7 ± 4.8 J/K/mol	245.2 ± 4.9 J/K/mol	248.9 ± 5 J/K/mol	252.7 ± 5 J/K/mol	molar heat capacity at constant pressure ([3]; 350.15 K, Crystal 2): 256 ± 5.1 J/K/mol; molar heat capacity at constant pressure ([3]; 355.15 K, Crystal 2): 260 ± 5.2 J/K/mol; molar heat capacity at constant pressure ([3]; 360.15 K, Crystal 2): 264 ± 5.3 J/K/mol; molar heat capacity at constant pressure ([3]; 365.15 K, Crystal 2): 267.4 ± 5.3 J/K/mol; molar heat capacity at constant pressure ([3]; 370.15 K, Crystal 2): 272 ± 5.4 J/K/mol; molar heat capacity at constant pressure ([3]; 375.15 K, Crystal 2): 276.3 ± 5.5 J/K/mol; molar heat capacity at constant pressure ([3]; 380.15 K, Crystal 2): 280.1 ± 5.6 J/K/mol; molar heat capacity at constant pressure ([3]; 385.15 K, Crystal 2): 284.6 ± 5.7 J/K/mol; molar heat capacity at constant pressure ([3]; 425.15 K, Crystal 1): 285.7 ± 5.7 J/K/mol; molar heat capacity at constant pressure ([3]; 430.15 K, Crystal 1): 288.4 ± 5.8 J/K/mol; molar heat capacity at constant pressure ([3]; 435.15 K, Crystal 1): 292.2 ± 5.8 J/K/mol; molar heat capacity at constant pressure ([3]; 440.15 K, Crystal 1): 298.2 ± 6 J/K/mol; molar heat capacity at constant pressure ([3]; 445.15 K, Crystal 1): 301.3 ± 6 J/K/mol; molar heat capacity at constant pressure ([3]; 450.15 K, Crystal 1): 308.5 ± 6.2 J/K/mol; molar heat capacity at constant pressure ([3]; 455.15 K, Crystal 1): 310.9 ± 6.2 J/K/mol; molar heat capacity at constant pressure ([3]; 460.15 K, Crystal 1): 314.8 ± 6.3 J/K/mol; molar heat capacity at constant pressure ([3]; 463.15 K, Crystal 1): 316.2 ± 6.3 J/K/mol
CCCc1nc2ccccc2[nH]1 [1H-benzimidazole, 2-propyl-]	385.8 ± 0.5 K	0.359 ± 0.0478 kcal/mol	190.5 ± 3.8 J/K/mol	192.6 ± 3.9 J/K/mol	197.1 ± 3.9 J/K/mol	201.5 ± 4 J/K/mol	206.1 ± 4.1 J/K/mol	210.1 ± 4.2 J/K/mol	214.4 ± 4.3 J/K/mol	217.1 ± 4.3 J/K/mol	218.7 ± 4.4 J/K/mol	223.2 ± 4.5 J/K/mol	228.3 ± 4.6 J/K/mol	234 ± 4.7 J/K/mol	239.7 ± 4.8 J/K/mol	245.7 ± 4.9 J/K/mol	252.2 ± 5 J/K/mol	258.6 ± 5.2 J/K/mol	263.7 ± 5.3 J/K/mol	268.3 ± 5.4 J/K/mol	vapor or sublimation pressure ([1]; 344.53 K): 4.28e-05 ± 2.2e-06 kPa; vapor or sublimation pressure ([1]; 352.14 K): 9.52e-05 ± 4.8e-06 kPa; vapor or sublimation pressure ([1]; 355.33 K): 0.000131 ± 7e-06 kPa; vapor or sublimation pressure ([1]; 362.01 K): 0.000266 ± 1.3e-05 kPa; vapor or sublimation pressure ([1]; 364.33 K): 0.000324 ± 1.6e-05 kPa; molar heat capacity at constant pressure ([3]; 350.15 K, Crystal 2): 274.9 ± 5.5 J/K/mol; molar heat capacity at constant pressure ([3]; 355.15 K, Crystal 2): 282.4 ± 5.7 J/K/mol; molar heat capacity at constant pressure ([3]; 360.15 K, Crystal 2): 292.6 ± 5.8 J/K/mol; molar heat capacity at constant pressure ([3]; 365.15 K, Crystal 2): 306.3 ± 6.1 J/K/mol; molar heat capacity at constant pressure ([3]; 400.15 K, Crystal 1): 280.1 ± 5.6 J/K/mol; molar heat capacity at constant pressure ([3]; 405.15 K, Crystal 1): 285.2 ± 5.7 J/K/mol; molar heat capacity at constant pressure ([3]; 410.15 K, Crystal 1): 290.7 ± 5.8 J/K/mol; molar heat capacity at constant pressure ([3]; 415.15 K, Crystal 1): 297.5 ± 6 J/K/mol; molar heat capacity at constant pressure ([3]; 420.15 K, Crystal 1): 306.5 ± 6.1 J/K/mol
